Reference: US9365489B2, “Nitrooxy alkanoic acids and derivatives thereof in feed for reducing methane emission in ruminants, and/or to improve ruminant performance” (priority 2009, dated 2016)

Assays:
[1] = system: methanogenesis in rumen liquor; test: In vitro test for methane production (modified Hohenheim Forage value Test); conditions: 8 h, 39° C., average of two experiments, vs control
Procedure: A modified version of the “Hohenheim Forage value Test (HFT)” was used for testing the effect of specific compounds on the rumen functions mimicked by this in-vitro system.
Feed is given into a syringe with a composition of rumen liquor and an appropriate mixture of buffers. The solution is incubated at 39° C. After 8 hours the quantity (and composition) of methane produced is measured and put into a formula for conversion.
• 6.2 g potassium dihydrogen phosphate (KH2PO4) • 0.6 g magnesium sulfate heptahydrate (MgSO4*7H2O) • 9 ml concentrated phosphoric acid (1 mol/l) • dissolved in distilled water to 1 l (pH about 1.6) Buffer Solution: • 35.0 g sodium hydrogen carbonate (NaHCO3) • 4.0 g ammonium hydrogen carbonate ((NH4)HCO3) • dissolved in distilled water to 1 l Trace Element Solution: • 13.2 g calcium chloride dihydrate (CaCl2*2H2O) • 10.0 g manganese(II) chloride tetrahydrate (MnCl2*4H2O) • 1.0 g cobalt(II) chloride hexahydrate (CoCl2*6H2O) • 8.0 g iron(III) chloride (FeCl3*6H2O) • dissolved in distilled water to 100 ml Sodium Salt Solution: • 100 mg sodium salt • dissolved in distilled water to 100 ml Reduction Solution: • first 3 ml sodium hydroxide (c=1 mol/l), then 427.5 mg sodium sulfide hydrate (Na2S*H2O) are added to 71.25 ml H2O • solution must be prepared shortly before it is added to the medium solution Procedure: Sample Weighing: • The feed stuff is sieved to 1 mm—usually TMR (44% concentrate, 6% hay, 37% maize silage and 13% grass silage)—and weighed exactly into 64 syringes. 4 of these syringes are the substrate controls, which display the gas production without the effect of the tested compounds. 4 other syringes are positive control, in which bromoethane sulfonate has been added to 0.1 mM. When needed, 4 syringes contain a carrier control (if the test compounds need a carrier). The remaining syringes contain the test substances, by groups of 4 syringes. Preparation of the Medium Solution:
The components are mixed in a Woulff bottle in following order: • 711 ml water • 0.18 ml trace element solution • 355.5 ml buffer solution • 355.5 ml mass element solution • The completed solution is warmed up to 39° C. followed by the addition of 1.83 ml sodium salt solution and the addition of reduction solution at 36° C. The rumen liquor is added, when the indicator turns colourless. Extraction of the Rumen Liquor: • 750 ml of rumen liquor are added to approximately 1,400 ml of medium solution under continued agitation and CO2-gassing. Filling the Syringes, Incubation and Determining Gas Volumes and VFA Values: • The diluted rumen fluid (24 ml) is added to the glass syringe. The syringes are then incubated for 8 hours at 39° C. under gentle agitation. After 8 hours, the volume of gas produced is measured, and the percentage of methane in the gas phase is determined by gas chromatography. Results
The food fermented was artificial TMR (44% concentrate, 6% hay, 37% maize silage and 13% grass silage). The compounds produced as described in examples 3 to 20 were added to the fermentation syringes to a concentration of 2 to 0.01% of dry matter (DM).

[2] = Stability of the isolated compound (1H NMR); format: physicochemical; conditions: for degradation on storage: after 1 week at room temperature, repurified compound; for degradation on drying (1H NMR): dried at 60° C. under reduced pressure for 18 hours
Procedure: The final compound was dried at 60° C. under reduced pressure for 18 hours. […] The degraded compound was adsorbed on silica gel and purified by flash chromatography [Biotage®, dichloromethane/methanol 100/0→98/2 (15CV), 98/2 (4CV)] affording compound 3 as a light yellow liquid (0.59 g, yield=33%).
The final compound was dried at 60° C. under reduced pressure for 18 hours. […] The degraded compound was adsorbed on silica gel and purified by flash chromatography [Biotage®, dichloromethane/methanol 100/0→98/2 (12CV), 98/2 (6CV)] affording compound 3 as a white solid (0.90 g, yield=70%).

Structure (SMILES)	effect on methanogenesis (%) ([1]; 0.05% DM)	effect on methanogenesis (%) ([1]; 0.1% DM)	effect on methanogenesis (%) ([1]; 0.01% DM)	effect on methanogenesis (%) ([1]; 0.5% DM)	effect on methanogenesis (%) ([1]; 2% DM)	effect on methanogenesis (%) ([1]; 1% DM)	degradation on storage [2]	degradation on drying (1H NMR) [2]	effect on methanogenesis (%) ([1]; 0.25% DM)
CCOC(=O)CO[N+](=O)[O-]	−1%	−1%	–	–	–	–	–	–	–
COC(=O)CCO[N+](=O)[O-]	−64%	–	−12%	−100%	−100%	–	–	–	–
O=C(O)CCO[N+](=O)[O-]	−98%	−100%	−8%	−100%	−100%	–	–	–	–
CCOC(=O)C(C)O[N+](=O)[O-] (stereo not shown)	−2%	–	–	−33%	−100%	–	–	–	–
CCOC(=O)CCCO[N+](=O)[O-]	−55%	−82%	−6%	−100%	−100%	–	–	–	–
O=C(O)CCCO[N+](=O)[O-]	–	–	–	–	2%	–	–	–	–
CCOC(=O)CC(C)O[N+](=O)[O-] (stereo not shown)	−17%	–	–	−100%	−100%	–	–	–	–
CCOC(=O)CCCCO[N+](=O)[O-]	−87%	–	−28%	−100%	−100%	–	–	–	–
O=C(O)CCCCO[N+](=O)[O-]	−100%	−100%	−23%	−100%	−100%	–	–	–	–
CC(C)(CO[N+](=O)[O-])C(=O)O	–	–	–	−49%	−100%	–	–	–	–
CCOC(=O)CCCCCO[N+](=O)[O-]	−78%	−100%	−3%	–	–	–	–	–	–
O=C(O)CCCCCO[N+](=O)[O-]	−99%	−100%	−10%	–	–	–	–	–	–
CCOC(=O)CCCCCCCO[N+](=O)[O-]	−96%	−99%	−12%	–	–	–	–	–	–
O=C(O)CCCCCCCO[N+](=O)[O-]	−76%	−100%	−7%	–	–	–	–	–	–
CCOC(=O)CCCCCCCCCCO[N+](=O)[O-]	−48%	−99%	−8%	–	–	–	–	–	–
O=C(O)CCCCCCCCCCO[N+](=O)[O-]	−52%	−99%	−13%	–	–	–	–	–	–
CCOC(=O)C1CCC(O[N+](=O)[O-])CC1 (stereo not shown)	−2%	−88%	–	–	–	−98%	–	–	–
CNC(=O)CCCCO[N+](=O)[O-] [Example 18, 5-Nitrooxy-pentanoic acid methylamide]	–	–	–	–	–	–	No further degradation was observed	Degradation was observed	–
NC(=O)CCCCO[N+](=O)[O-] [Example 20, 5-Nitrooxy-pentanoic acid amide]	–	–	–	–	–	–	No further degradation was observed	Degradation was observed	–
O=[N+]([O-])[O-].[Na+] [Na NO3, reference compound]	–	–	–	−2%	−23%	–	–	–	–
CCOC(=O)CCO[N+](=O)[O-] [drawing 19]	−18%	−63%	–	−100%	−100%	−100%	–	–	−100%
NC(=O)CCCCO[N+](=O)[O-] [drawing 36]	–	−99%	−2%	–	–	−98%	–	–	–
CNC(=O)CCCCO[N+](=O)[O-] [drawing 37]	–	−100%	−2%	–	–	−98%	–	–	–
